Reference: patent US20240316223A1, “Oxidative Cyclization Reagents for Chemoselective Tryptophan Bioconjugation” (The Regents of the University of California, priority 2021, published 2024)
Peptide text beside a SMILES is read from it. * marks the point of attachment. Cbz = O=C(OCc1ccccc1)*

Assays:
HeLa cells = assay: Unfolding stress detection in living cells (desthiobiotin oxaziridine labeling, Western blot against biotin); format: cell-based; details: HeLa cells treated 8 hours, lysate labeled with desthiobiotin oxaziridine (250 μM)
Text: In another application, we used Trp-CLiC as a general method to probe stress-induced protein unfolding. Indeed, under various environmental stresses, folded proteins will expose more hydrophobic residues as they unfold, and accumulation and aggregation of unfolded proteins is regarded as a signal of loss of proteostasis (34-37). Owing to its sterically demanding and hydrophobic properties, tryptophan residues are more likely to be buried in protein cores. We reasoned that this oxidative cyclization method could enable monitoring of increases in solvent accessibility of buried tryptophan residues during stress-induced protein unfolding. To test this hypothesis, we labeled lysozyme as a model protein in the presence of varying concentrations of guanidinium chloride (GdmCl) as a denaturant. […] We then used Trp-CLiC to monitor stress-induced protein unfolding in whole cell proteomes. HeLa cells were treated with the proteasome inhibitor MG-132, the ER stress inducer Tunicamycin to trigger unfolded protein stress responses, or vehicle control, then lysed and labeled with N-sulfonyl oxaziridine linked to desthiobiotin.
HeLa cells were treated with MG-132 (5 μg/ml) or Tunicamycin (5 μM) for 8 hours. Then cells were harvested and lysed in PBS buffer (1% Triton, with protease inhibitors). […] The labeling results were detected by Western blot analysis against biotin.

[1] = Reaction of oxaziridine with methionine
[2] = Selectivity and reactivity of Ac-Trp-OMe with N-sulfonyl oxaziridines (LC-MS); details: for selectivity for the indole cycloadduct product: library screen with Ac-Trp-OMe
Experimental: Initial reactivity studies with the N-sulfonyl oxaziridine Ox-W1 and N-acetyl-L-tryptophan methyl ester (Ac-Trp-OMe) were then performed in PBS/organic solvent mixture for 10 min at room temperature and subjected to liquid chromatography-mass spectrometry (LC-MS) analysis. Tryptophan reacted with a ˜50% conversion. Two major products were observed: the desired indole cycloadduct and hydroxyl tryptophan. The cycloadduct was generated with 28% yield, consistent with simple indoles that can react with such oxaziridines in organic solution (28). […] We then synthesized and screened a library of 20 different oxaziridines for Trp-CLiC chemistry; Ox-W10, Ox-W17, and Ox-W19 emerged as the top lead candidates with improved ˜90% selectivity and high reactivity for the indole cycloadduct product, with a measured reaction rate of 24.9±1.3M^−1 s^−1 that is on par with click chemistry reactions (29-31).
A stock solution of Ac-Trp-OMe (100 mM) in MeOH was mixed with oxaziridine (100 mM) in MeOH (v/v ratio=1:1.2), followed by the immediate addition of PBS (1 volume equiv. to make 1:1 PBS/MeOH). For some oxaziridines with low solubility, the reaction was performed in PBS/MeOH/MeCN (1:1:1) co-solvent. […] It is important the initial stock solutions of Ac-Trp-OMe and oxaziridine are fully homogeneous prior to mixing.
For LC-MS analysis, solvent A was water and solvent B was methanol. The linear gradient was 40-100% B in 6.5 min and 100% B for 1.5 min.

[3] = Kinetics of the Trp-CLiC reaction (absorbance at 280 nm, UV-Vis); details: PBS buffer, 25° C.
Experimental: For kinetics study of the Trp-CLiC reaction, the absorbance at 280 nm was time-dependently monitored by UV-Vis upon adding Ox-W18 (50 μM) into different concentrations of Ac-Trp-OMe (500 μM, 550 μM and 600 μM) in PBS buffer at 25° C. Then the second-order reaction rate constant could be obtained.

GAPDH and TBA1B = GAPDH and TBA1B labeling by Western Blot; format: biochemical
Text: (§1) From the ABPP studies with the Trp-CLiC method, 190 unique hyperreactive tryptophan sites from 151 probe-modified proteins were identified in more than two replicates. These Ox-W18-labeled tryptophan sites were found in many classes of proteins, including enzymes, chaperones, and nucleoproteins, as well as many structural proteins. Meanwhile, we noticed that many targets are classified as non-druggable and highly enriched in diverse phase-separated compartments, such as the nucleolus, nuclear body, paraspeckle and stress granule. […] For example, the hyperreactive W196 site identified on GAPDH, W346 site found on TBA1B, and W324 and W148 on LDHA enzyme are the most surface-exposed tryptophan residues in these proteins, whereas other tryptophan residues were not probed. […] GAPDH and TBA1B were chosen as representative examples to showcase the Trp-CLiC method for ABPP. […] We then sought to further investigate the character of probed solvent-accessible tryptophan sites by performing motif analysis. […] Lysine is hydrophilic and has the capacity to form cation-π interactions with the indole tryptophan ring, providing a potential pathway for stabilizing hydrophobic tryptophan residues being surface-exposed (38, 39).

IL8 = target: T1, IL8 (Homo sapiens, UniProt P10145); assay: Protein labelling with N-sulfonyl oxaziridine: IL8 (LC-MS/MS); details: native vs denaturant-treated IL8
T1 sequence (P10145 21-99): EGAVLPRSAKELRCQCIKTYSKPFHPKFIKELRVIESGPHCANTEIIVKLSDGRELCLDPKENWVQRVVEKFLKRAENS
Experimental: We then went on to label the model protein IL8, which has one partially buried tryptophan site.
Proteins were dissolved in Tris (50 mM, pH 8.0) buffer. Ox-W18 (100 mM stock in DMF) was added to 30 μL protein solution (50 μM) and the final concentration was 300 μM. The reactions were performed for 10 min at room temperature and then quenched by addition of excess Ac-Met-OMe solution. For protein labelling under denaturing condition, the protein solution was treated with 0.5% SDS and then boiled for 5 min at 95° C. before Ox-W18 addition. For competition assay, free Ac-Trp-OMe (2 mM) was added beforehand. […] After tryptophan labelling with Ox-W18, the proteins were desalted with Zeba™ Spin Desalting Columns (7K MWCO, 0.5 mL) before subsequent Q-TOF analysis and UV-Vis analysis or further click reaction. In-gel fluorescence imaging was also applied to test the tryptophan labelling efficiency. For the copper-mediated alkyne-azide cyclization reaction of fluorescence dye, 100 μM CuSO4, 100 μM TBTA, 100 μM azide-dye and 2 mM sodium ascorbate was added to Ox-W18-labeled proteins. […]
(§2) Trypsin digested peptides were analyzed on a Thermo Scientific Q Exactive™ Plus Hybrid Quadrupole-Orbitrap™ Mass Spectrometer coupled with an Aligent 1260 Infinite LC system. […]
For protein ID and modification identification, all MS/MS raw files were analyzed using pFind platform. […]

GLP-1 = GLP-1 (Homo sapiens, UniProt P01275); assay: Oxaziridine screening on peptides: GLP-1 (Q-TOF); format: biochemical; details: GLP-1 (50 μM), oxaziridine (300 μM)
Experimental: Peptides were dissolved in 5% DMSO solution. […] The labeled peptides were subjected to Q-TOF analysis with a Proswift RP-4H (monolithic phenyl, 1.0 mm×50 mm, Dionex) column. The Solvent A was MilliQ water with 0.1% (v/v) formic acid, while the Solvent B was ACN with 0.1% (v/v) formic acid. The LC system was set at the 0.30 mL/min with a gradient of 5-100% solvent B in solvent A over 8 min. MassHunter Quantitative Analysis Version software was used for ion chromatogram extraction and Maximum Entropy deconvolution.

lysozyme = lysozyme (Gallus gallus, UniProt P00698); assay: Lysozyme labelling with Ox-W18 (A260/A280 ratio, LC-MS/MS); details: native folded conditions
Text: Based on spectroscopic analyses, we used the ratio of absorption signatures at 260 and 280 nm (A260/A280 ratio) to track tryptophan bioconjugation on lysozyme.
We next evaluated how many and which tryptophan residues on lysozyme are prioritized for redox-based Trp-CLiC labeling under native folded conditions. […] We then moved on to identify which tryptophan sites are targeted and tested the hypothesis that the propensity of oxidative tryptophan modification reactivity might correlate with solvent accessibility. To this end, we used the Discovery Studio platform to calculate the relative solvent accessibility of the six tryptophan residues on lysozyme.
Proteins were dissolved in Tris (50 mM, pH 8.0) buffer. Ox-W18 (100 mM stock in DMF) was added to 30 μL protein solution (50 μM) and the final concentration was 300 μM. The reactions were performed for 10 min at room temperature and then quenched by addition of excess Ac-Met-OMe solution. For protein labelling under denaturing condition, the protein solution was treated with 0.5% SDS and then boiled for 5 min at 95° C. before Ox-W18 addition. For competition assay, free Ac-Trp-OMe (2 mM) was added beforehand. […]
as §2

HEK 293T cell lysates = assay: Activity-based protein profiling (ABPP) of hyperreactive tryptophan sites; format: biochemical, human; details: identified in more than two replicates
Text: We next moved on to apply Trp-CLiC at the whole proteome level, specifically to identify new functional tryptophan sites in cells using activity-based protein profiling (ABPP).
as §1, with “39). […]” for “39).”

[4] = Ac-Trp-OMe, PBS/organic solvent mixture, 10 min, room temperature

GLP-1, sequence (P01275 92-128 limits assumed): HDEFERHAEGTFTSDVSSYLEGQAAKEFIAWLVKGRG
lysozyme, sequence (P00698 19-147): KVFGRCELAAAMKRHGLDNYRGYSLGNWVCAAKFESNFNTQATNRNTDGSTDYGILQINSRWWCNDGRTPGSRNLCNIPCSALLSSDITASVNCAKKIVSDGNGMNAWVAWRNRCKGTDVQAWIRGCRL

Question: Which “desthiobiotin staining signal vs vehicle control” value (HeLa cells) does the source give for `CC(C)C[C@@H](C=O)NC(=O)[C@H](CC(C)C)NC(=O)[C@H](CC(C)C)NC(=O)OCc1ccccc1` [MG-132] (Cbz-Leu-Leu-Leu-aldehyde) here?
Answer: more desthiobiotin staining signal

Question: For `CS(=O)(=O)N1OC1c1ccccc1` (stereo not drawn) [Ox-W1], which “product of reaction with methionine” value [1] is on record?
Answer: traceless methionine sulfoxide adduct

Question: What about the Tryptophan conversion [2, 4] of the same molecule?
Answer: ~50%

Question: What about the indole cycloadduct yield [2, 4] of the same molecule?
Answer: 28%

Question: Which “measured reaction rate (second-order rate constant)” value [3] does the source give for `COc1ccc(S(=O)(=O)N2OC2c2ccc([N+](=O)[O-])cc2[N+](=O)[O-])cc1` (stereo not drawn) [Ox-W10] here?
Answer: 24.9 ± 1.3 M⁻¹ s⁻¹

Question: What about the “selectivity for the indole cycloadduct product” value [2] of the same molecule?
Answer: ~90%

Question: Which “measured reaction rate (second-order rate constant)” value [3] does the source give for `C#Cc1ccc(S(=O)(=O)N2OC2c2ccccc2[N+](=O)[O-])cc1` (stereo not drawn) [Ox-W17] here?
Answer: 24.9 ± 1.3 M⁻¹ s⁻¹

Question: What about the “selectivity for the indole cycloadduct product” value [2] of the same molecule?
Answer: ~90%

Question: For `C#CCN(C)S(=O)(=O)N1OC1c1ccccc1[N+](=O)[O-]` (stereo not drawn) [Ox-W18], which “GAPDH and TBA1B labeling with increased probe addition” value (GAPDH and TBA1B) is on record?
Answer: more GAPDH and TBA1B labeling

Question: What about the “modification of the partially buried tryptophan site” value (IL8) of the same molecule?
Answer: modified only after treatment with a denaturant

Question: And the conversion (GLP-1)?
Answer: quantitative

Question: And the cycloadduct yield (GLP-1)?
Answer: 74%

Question: What about the A260/A280 ratio (lysozyme) of the same molecule?
Answer: 0.80

Question: And the probe-modified proteins identified (HEK 293T cell lysates)?
Answer: 151

Question: And the “unique hyperreactive tryptophan sites identified” value (HEK 293T cell lysates)?
Answer: 190

Question: What does the source list for `C#CCN(C)S(=O)(=O)N1OC1c1ccc([N+](=O)[O-])cc1[N+](=O)[O-]` (stereo not drawn) [Ox-W19]?
Answer: measured reaction rate (second-order rate constant) [3]: 24.9 ± 1.3 M⁻¹ s⁻¹; selectivity for the indole cycloadduct product [2]: ~90%

Question: With Tunicamycin as the molecule, how does the “desthiobiotin staining signal vs vehicle control” value (HeLa cells) read?
Answer: more desthiobiotin staining signal
